Assay results taken from PMC8190279, “Spatiotemporal imaging and pharmacokinetics of fluorescent compounds in zebrafish eleuthero-embryos after different routes of administration” (Scientific Reports, 2021).

How the values were obtained:
[1] = test system: 3 dpf zebrafish eleuthero-embryos; experiment: Whole-body fluorescence quantification and 1-compartment PK modelling; format: in vivo, Danio rerio; conditions: for ke (total elimination rate constant): 1-compartment model fitted to all routes (immersion 10 µM, PC/IP 2 mg/kg, combination), 0-48 h; for Q (passive exchange with the medium) / t1/2 (elimination half-life, ln(2)/ke): 1-compartment model, zebrafish eleuthero-embryo; for Comparison of passive exchange with the medium (Q) among compounds: ranking in words
Source text: We then quantified the relative amount of compound present in the zebrafish eleuthero-embryos by assessing the integrated fluorescence intensity of delineated whole-body contours present in the fluorescence images (Figs. 1, 2, 3, 4, 5, 6, 7).
The total measured fluorescence was proportional to total amount of compound present in the animal, as described by Eq. (1). RFUT denotes the sum of fluorescence intensity in the overall image, A denotes the amount of drug in the zebrafish, and FLUOR is a constant denoting the compound-specific fluorescence quantum yield.1 RFUT=FLUOR∗A
Simplifying by substitution of ke=Q+CL/V :3 dA/dt=-ke∗A+QM
Next, data fitting was performed with the following mathematical model:4 At=Dose∗e^-ket+MQ/ke(1-e^-ket) with Dose the injected dose (mg/kg), M the concentration in the medium (mg/L), Q the passive exchange with the medium (L/h) and ke the total elimination rate constant (h^−1). When administering the compound through immersion, the injected dose is 0 mg/kg. When injecting the compound, the concentration in medium is 0. This model was fitted to all available data using non-linear regression in R version 4.0.3.
Residual error plots were used to identify observations with poor fit.
The designed model was optimized by a non-linear least squares modelling, using Gauss–Newton algorithms under the method of iterative fashion, with R version 4.0.3, using stats::nls[50].

[2] = Experimental lipophilicity (LogD), shake-flask method with UHPLC; conditions: n-octanol / Danieau's solution, 10 µM compound
Experimental: Briefly, 10 µM of compound was shaken in a mixture of two mobile phases, n-octanol and Danieau’s solution (eleuthero-embryo medium) and analysed with UHPLC.
The lipophilicity of the fluorescent compounds was determined following the EPA guideline OPPTS 830.7550 Partition coefficient (shake flask method)[46] using Danieau’s solution and n-octanol as the two immiscible phases. Analyses were performed using an Agilent Infinity 1290 UHPLC system (Agilent Technologies, Waldbronn, Germany) consisting of an autosampler, quaternary pump and DAD-detector, operated with Open Lab software (version C.01.10, Agilent Technologies). […] All compounds were detected and quantified at 390 nm. For the quantification of the compounds, calibration samples were made in 50:50 ACN:MilliQ water for the compounds analysed in RPLC and 95:5 ACN:MilliQ water for compounds analysed in HILIC. […] The variation (calculated as the relative standard deviation, %RSD) for 3 injections was always below 10% (for all considered concentrations) and R^2 values of the calibration curves were all above 0.998. All calculations concerning the evaluation of the recorded data were made in MS Excel (Microsoft Corporation, Seattle, USA). […]

[3] = test system: 3 dpf zebrafish eleuthero-embryos; experiment: Spatiotemporal fluorescence imaging after immersion, microinjection (PC, IP, IY) or combination; format: in vivo, Danio rerio
Experimental: We then determined the spatiotemporal distribution of the fluorescent compounds. The eleuthero-embryos were exposed to the dyes by immersion or microinjection in the pericardial cavity (PC), intraperitoneally (IP) and in the yolk sac (IY) for 48 h starting from 3 dpf on, i.e. after hatching, thus avoiding the presence of the chorion that has been reported as a potential barrier for the absorption of compounds[21],[27].
At specific time periods after treatment, the eleuthero-embryos were immobilized by hypothermia and fluorescent microscope pictures were taken.
3 dpf zebrafish eleuthero-embryos wildtype AB (n = 10 per compound) randomly selected were immersed using 6-well-plates (5 mL per well) of Danieau’s medium with a final DMSO concentration of 0.1% (v/v), containing the compounds at a concentration of 10 µM. Vehicle-treated control eleuthero-embryos were exposed to Danieau’s medium supplemented with 0.1% v/v DMSO.
3 dpf zebrafish eleuthero-embryos wildtype AB (n = 10 per compound) randomly selected were immobilized by cooling to 4 °C and positioned on 1% (w/v) agarose plates at room temperature. All compounds were microinjected using glass needles fitted to a micromanipulator (MM-33) connected to a gas pressure microinjector (Eppendorf Femtojet set - AG 22331 Hamburg). Glass capillaries (W/FIL 1.0MM 4 in TW 100F-4) were pulled (Sutter Instrument CO. Model P-87 Cat N B100-58-15 Filament: FB330B – FB320B) by using program 5 (Heat 829, Pull 158, Vel 100, Time 150). Needles were filled with compounds dissolved in vehicle (DMSO/saline (1:1)). Microinjections were performed into the pericardial cavity (PC)[47], into the yolk sac (IY)[35], or into the peritoneal cavity (IP) at a volume of 1 nL and a dose of 2 mg/kg. For the intraperitoneal microinjection, the eleuthero-embryos were positioned in lateral right recumbence under a dissecting microscope. By using a micromanipulator, the needle was inserted posteriorly and ventrolateral to the swim bladder in the peritoneal cavity. Afterwards the eleuthero-embryos were transferred to 6-well plates. Control eleuthero-embryos were exposed to vehicle only.
3 dpf zebrafish eleuthero-embryos wildtype AB (n = 10 per compound) randomly selected were immobilized and positioned on 1% (w/v) agarose plates. All compounds were microinjected using glass needles, as previously described into the PC cavity. Afterwards, the larvae were selected and transferred to a 6-well-plate, into its corresponding compound at 10 µM.
The thus-treated eleuthero-embryos were kept in the incubator at 28.5 °C (in darkness) and taken out shortly at defined time points (15’, 1 h, 3 h, 6 h, 24 h and 48 h) for image analysis.
Eleuthero-embryos were immobilized by hypothermia, rinsed three times with Danieau’s medium, and positioned latero-lateral (right lateral recumbency) in a drop of agarose (0.1%). To acquire images, a Leica MZ10F fluorescent stereomicroscope with a 4.0 × planapochromatic objective (10447243) was used, equipped with a Digital Color Camera Leica DFC310 FX (Software LAS 4.13). Filter sets were GFP 10446222 in case of compound FAMA, dSRED 10447079 in case of S-CY3A, CY3A and TAMRA, and CY5 10446366 in case of S-CY5.5A and S-CY5A. After manual delineation of the whole body (WB) contours of the zebrafish eleuthero-embryos using MetaMorph (Microscopy Automation & Image Analysis Software V.7.8.00), the fluorescence in the selected area was quantified as integrated fluorescence intensity (RFU) that adds up all fluorescence intensity values of the individual pixels. In case of the combination treatment the same correction factor for exposure time from the camera setting was applied in the case of FAMA and TAMRA, to avoid saturation of the images (Supplementary information. Figure S1)[48]. The selected images shown in the Figs. 1, 2, 3, 4, 5, 6 and 7 were arranged using MS PowerPoint (Microsoft Corporation, Seattle, USA) and the open-source GIMP (version 2.10.24 www.gimp.org 2021) software. […]

ke (total elimination rate constant) [1] | Q (passive exchange with the medium) [1] | t1/2 (elimination half-life, ln(2)/ke) [1] | Additional effect of immersion route on intrabody exposure in combination treatment (RC3h) ([1]; 3 h exposure, immersion 10 µM + PC 2 mg/kg) | Comparison of passive exchange with the medium (Q) among compounds [1] | Level and intra-body fluorescence distribution at 48 h, combination (immersion + PC) compared with PC microinjection ([3]; in vivo) | Intra-fish distribution after pericardial (PC) microinjection ([3]; in vivo) | Compound | LogD [2] | Intra-fish distribution after pericardial (PC) microinjection ([3]; PC microinjection 2 mg/kg) | Level and intra-body fluorescence distribution at 48 h, combination (immersion + PC) compared with PC microinjection ([3]; immersion 10 µM + PC 2 mg/kg, 48 h) | Uptake after immersion (fluorescence imaging) ([3]; immersion 10 µM, 0-48 h from 3 dpf)
– | 1.71 L/h × 10^−9 | 57.41 h | – | – | – | rapidly distributed to the vasculature | C#CCNC(=O)c1ccc2c(c1)C(=O)OC21c2ccc(O)cc2Oc2cc(O)ccc21 [FAMA, FAM alkyne, 5-isomer] | – | – | – | –
0.023 h⁻¹ | 0.34 L/h × 10^−9 | 30.26 h | – | slowest one to be exchanged | – | rapidly distributed to the vasculature | C#CCNC(=O)CCCCCN1/C(=C/C=C/C=C/C2=[N+](C)c3ccc4c(S(=O)(=O)[O-])cc(S(=O)(=O)[O-])cc4c3C2(C)C)C(C)(C)c2c1ccc1c(S(=O)(=O)[O-])cc(S(=O)(=O)[O-])cc21.[K+].[K+].[K+] [S-CY5.5A, Sulfo-cyanine 5.5 alkyne] | – | – | – | –
0.014 h⁻¹ | 1.61 L/h × 10^−9 | 50.41 h | – | – | altered | rapidly distributed to the vasculature | Sulfo-cyanine 5 alkyne [S-CY5A] | – | – | – | –

Further lines, the compound ahead of its results:

Compound | ke (total elimination rate constant) [1] | Q (passive exchange with the medium) [1] | t1/2 (elimination half-life, ln(2)/ke) [1] | Additional effect of immersion route on intrabody exposure in combination treatment (RC3h) ([1]; 3 h exposure, immersion 10 µM + PC 2 mg/kg) | Comparison of passive exchange with the medium (Q) among compounds [1] | Level and intra-body fluorescence distribution at 48 h, combination (immersion + PC) compared with PC microinjection ([3]; in vivo) | Intra-fish distribution after pericardial (PC) microinjection ([3]; in vivo) | LogD [2] | Intra-fish distribution after pericardial (PC) microinjection ([3]; PC microinjection 2 mg/kg) | Level and intra-body fluorescence distribution at 48 h, combination (immersion + PC) compared with PC microinjection ([3]; immersion 10 µM + PC 2 mg/kg, 48 h) | Uptake after immersion (fluorescence imaging) ([3]; immersion 10 µM, 0-48 h from 3 dpf)
C#CCNC(=O)c1ccc(-c2c3ccc(=[N+](C)C)cc-3oc3cc(N(C)C)ccc23)c(C(=O)[O-])c1 (single isomer, unassigned) [TAMRA, Tamra alkyne 5-isomer] | 0.052 h⁻¹ | 1.45 L/h × 10^−9 | 13.35 h | – | – | – | – | 0.46 | rapidly distributed to the vasculature | altered | gradually taken up over time
C#CCNC(=O)CCCCCN1C(=CC=CC2=[N+](C)c3ccccc3C2(C)C)C(C)(C)c2ccccc21.[Cl-] [CY3A, Cyanine3 alkyne] | 0.049 h⁻¹ | 8.37 L/h × 10^−9 | 13.92 h | to a limited degree | taken up the fastest | altered | – | 1.73 | – | – | –
Sulfo-cyanine 3 alkyne [S-CY3A] | 0.012 h⁻¹ | 0.23 L/h × 10^−9 | 57.40 h | – | – | – | rapidly distributed to the vasculature | – | – | – | –
